Data as given in patent publication US20140005230A1 (priority 2011, published 2014).

Key:
[1] = LogP by HPLC on reversed phase columns (EEC directive 79/831 Annex V.A8); assay type: physicochemical; details: pH 2.7, 0.1% formic acid in water / acetonitrile gradient
Procedure: Measurement of Iog P values was performed according EEC directive 79/831 Annex V.A8 by HPLC (High Performance Liquid Chromatography) on reversed phase columns with the following method:
Measurement of LC-MS was done at pH 2.7 with 0.1% formic acid in water and with acetonitrile (contains 0.1% formic acid) as eluent with a linear gradient from 10% acetonitrle to 95% acetonitrile.
Calibration was done with not branched alkan2-ones (with 3 to 16 carbon atoms) with known log P-values (measurement of log P values using retention times with linear interpolation between successive alkanones). lambda-maX-values were determined using UV-spectra from 200 nm to 400 nm and the peak values of the chromatographic signals.

Phytophthora infestans = assay type: in vivo; details: tomatoes, preventive spray, 10 ppm of active ingredient, evaluated 3 days after inoculation
Plasmopara viticola = assay: Plasmopara test (grapevines) / preventive; assay type: in vivo; details: preventive spray, 100 ppm of active ingredient, evaluated 6 days after inoculation
Procedure: Plasmopara Test (Grapevines)/Preventive
To produce a suitable preparation of active compound, 1 part by weight of active compound is mixed with the stated amounts of solvent and emulsifier, and the concentrate is diluted with water to the desired concentration.
To test for preventive activity, young plants are sprayed with the preparation of active compound at the stated rate of application. After the spray coating has dried on, the plants are inoculated with an aqueous spore suspension of Plasmopara viticola and then remain for 1 day in an incubation cabinet at approximately 20° C. and a relative atmospheric humidity of 100%. The plant is subsequently placed for 4 days in a greenhouse at approximately 21° C. and a relative atmospheric humidity of approximately 90%. The plants are then misted and placed for 1 day in an incubation cabinet.
The test is evaluated 6 days after the inoculation. 0% means an efficacy which corresponds to that of the untreated control, while an efficacy of 100% means that no disease is observed.

Pythium ultimum = assay: Pythium test (cotton) / seed treatment; assay type: in vivo; details: 50 g/dt seed of active ingredient, greenhouse 7 days, emerged seedlings
Procedure: Pythium Test (cotton)/Seed Treatment
The test is performed under greenhouse conditions.
Cotton seeds, treated with the active compound or compound combinations, solved in N-methyl-2-pyrrolidon and diluted with water to the desired dosages, were sown in 6*6 cm pots containing 4 cm of a 1:1 mix of steamed field soil and sand.
Perlite was incubated with mycelium fragments of Pythium ultimum. 1 ml of infected perlite was scattered between the treated cotton seeds. Seeds were then covered by light expanded clay aggregate. Pots were incubated in the greenhouse 7 days at 20° C. and 80% relative humidity.
Assessment consisted of counting of emerged seedlings. 0% means an efficacy which corresponds to that of the control, while an efficacy of 100% means that all seedlings have emerged.

Compound: CC(=CC(=O)Nc1nc(CON=C(c2ccccc2)c2nnnn2C)cs1)C1CCCCC1 [Example 21]
- LogP [1]: 4.44

Compound: CC(=CC1CC1)C(=O)Nc1nc(CON=C(c2ccccc2)c2nnnn2C)cs1 [Example 27]
- LogP [1]: 3.44
- Eff. % (Phytophthora infestans): 95%

Compound: CC(C)=CC(=O)Nc1nc(CON=C(c2ccccc2)c2nnnn2C)cs1 [Example 28]
- LogP [1]: 3.08
- Eff. % (Phytophthora infestans): 90%

Compound: CC(=CC1CC1)C(=O)Nc1nc(CON=C(c2ccccc2)n2nnnc2C)cs1 [Example 11]
- LogP [1]: 3.52
- Eff. % (Phytophthora infestans): 95%

Compound: CC(=CC(=O)Nc1cccc(CON=C(c2ccccc2)c2nnnn2C)n1)C1CCCCC1 [Example 5]
- LogP [1]: 4.82
- Eff. % (Plasmopara viticola): 91%
- Eff. % (Phytophthora infestans): 90%

Compound: Cc1nnnn1C(=NOCc1csc(NC(=O)C=CC2CC2)n1)c1ccccc1 [Example 13]
- LogP [1]: 3.09

Compound: CC(=CC1CCCC1)C(=O)Nc1nc(CON=C(c2ccccc2)n2nnnc2C)cs1 [Example 10]
- LogP [1]: 4.16
- Eff. % (Phytophthora infestans): 80%

Compound: Cn1nnnc1C(=NOCc1csc(NC(=O)C=C(c2ccccc2)C2CC2)n1)c1ccccc1 [Example 22]
- LogP [1]: 4.21
- Eff. % (Phytophthora infestans): 80%

Compound: CC(=CC(=O)Nc1nc(CON=C(c2ccccc2)c2nnnn2C)cs1)C1CC1 [Example 18]
- LogP [1]: 3.41

Compound: CC(=CC(=O)Nc1cccc(CON=C(c2ccccc2)n2nnnc2C)n1)C1CC1 (mixture of isomers) [Example 31]
- LogP [1]: 3.59
- Eff. % (Phytophthora infestans): 93%

Compound: Cn1nnnc1C(=NOCc1csc(NC(=O)C=C(C2CC2)C2CC2)n1)c1ccccc1 [Example 23]
- LogP [1]: 3.76
- Eff. % (Phytophthora infestans): 85%

Compound: CC(=CC1CCCC1)C(=O)Nc1nc(CON=C(c2ccccc2)c2nnnn2C)cs1 [Example 26]
- LogP [1]: 4.09
- Eff. % (Plasmopara viticola): 90%
- Eff. % (Phytophthora infestans): 95%

Compound: Cc1nnnn1C(=NOCc1csc(NC(=O)C=C(c2ccccc2)C2CC2)n1)c1ccccc1 [Example 17]
- LogP [1]: 2.38

Compound: CC(C)=CC(=O)Nc1nc(CON=C(c2ccccc2)n2nnnc2C)cs1 [Example 12]
- LogP [1]: 3.15
- Eff. % (Phytophthora infestans): 80%

Compound: CC(=CC(=O)Nc1nc(CON=C(c2ccccc2)n2nnnc2C)cs1)C1CC1 [Example 7]
- LogP [1]: 3.46

Compound: Cn1nnnc1C(=NOCc1csc(NC(=O)C=C(c2ccccc2)C2CC2)n1)c1ccccc1 [Example 30]
- LogP [1]: 2.36
- Eff. % (Phytophthora infestans): 85%

Compound: Cc1nnnn1C(=NOCc1csc(NC(=O)C=CC2CCCCC2)n1)c1ccccc1 [Example 16]
- LogP [1]: 2.53
- Eff. % (Phytophthora infestans): 90%

Compound: CC(=CC(=O)Nc1cccc(CON=C(c2ccccc2)c2nnnn2C)n1)C1CC1 [Example 3]
- LogP [1]: 3.46
- Eff. % (Phytophthora infestans): 95%

Compound: CC(=CC(=O)Nc1nc(CON=C(c2ccccc2)c2nnnn2C)cs1)C1CCCCC1 [Example 20]
- LogP [1]: 4.66
- Eff. % (Phytophthora infestans): 80%

Compound: Cc1nnnn1C(=NOCc1cccc(NC(=O)C=CC2CCCCC2)n1)c1ccccc1 (mixture of isomers) [Example 32]
- LogP [1]: 4.46
- Eff. % (Phytophthora infestans): 95%

Compound: CC(=CC(=O)Nc1cccc(CON=C(c2ccccc2)c2nnnn2C)n1)C1CC1 [Example 2]
- LogP [1]: 3.29
- Eff. % (Plasmopara viticola): 84%
- Eff. % (Phytophthora infestans): 100%

Compound: Cn1nnnc1C(=NOCc1csc(NC(=O)C=CC2CCCCC2)n1)c1ccccc1 [Example 29]
- LogP [1]: 2.5
- Eff. % (Phytophthora infestans): 95%

Compound: CC(=CC(=O)Nc1cccc(CON=C(c2ccccc2)c2nnnn2C)n1)C1CC1 [Example 1, 3-cyclopropyl-N-{6-[({[(1-methyl-1H-tetrazol-5-yl)(phenyl)methylene]amino}oxy)methyl]pyridin-2-yl}but-2-enamide]
- chromatographic logP ([1]; reversed phase HPLC column): 3.48
- Eff. % (Pythium ultimum): 100%
- Eff. % (Plasmopara viticola): 97%
- Eff. % (Phytophthora infestans): 95%

Compound: Cc1nnnn1C(=NOCc1csc(NC(=O)C=C(C2CC2)C2CC2)n1)c1ccccc1 [Example 15]
- LogP [1]: 3.83

Compound: Cc1nnnn1C(=NOCc1cccc(NC(=O)C=C(c2ccccc2)C2CC2)n1)c1ccccc1 [Example 33]
- LogP [1]: 4.41
- Eff. % (Phytophthora infestans): 95%

Compound: Cc1nnnn1C(=NOCc1csc(NC(=O)C=C(c2ccccc2)C2CC2)n1)c1ccccc1 [Example 9]
- LogP [1]: 4.26
- Eff. % (Phytophthora infestans): 85%

Compound: Cn1nnnc1C(=NOCc1cccc(NC(=O)C=CC2CCCCC2)n1)c1ccccc1 [Example 6]
- LogP [1]: 4.36
- Eff. % (Plasmopara viticola): 93%
- Eff. % (Phytophthora infestans): 95%

Compound: Cn1nnnc1C(=NOCc1csc(NC(=O)C=CC2CC2)n1)c1ccccc1 [Example 24]
- LogP [1]: 3.04
- Eff. % (Plasmopara viticola): 90%
- Eff. % (Phytophthora infestans): 95%
